# Source: BindingDB's records for doi:10.1021/bi00139a026 (University of California San Francisco, 1992)
# Experiments:
# [1] = target: T1, Amine oxidase [flavin-containing] A (Homo sapiens, UniProt P21397); assay: Inhibiton Assay
# T1 sequence (P21397 whole entry): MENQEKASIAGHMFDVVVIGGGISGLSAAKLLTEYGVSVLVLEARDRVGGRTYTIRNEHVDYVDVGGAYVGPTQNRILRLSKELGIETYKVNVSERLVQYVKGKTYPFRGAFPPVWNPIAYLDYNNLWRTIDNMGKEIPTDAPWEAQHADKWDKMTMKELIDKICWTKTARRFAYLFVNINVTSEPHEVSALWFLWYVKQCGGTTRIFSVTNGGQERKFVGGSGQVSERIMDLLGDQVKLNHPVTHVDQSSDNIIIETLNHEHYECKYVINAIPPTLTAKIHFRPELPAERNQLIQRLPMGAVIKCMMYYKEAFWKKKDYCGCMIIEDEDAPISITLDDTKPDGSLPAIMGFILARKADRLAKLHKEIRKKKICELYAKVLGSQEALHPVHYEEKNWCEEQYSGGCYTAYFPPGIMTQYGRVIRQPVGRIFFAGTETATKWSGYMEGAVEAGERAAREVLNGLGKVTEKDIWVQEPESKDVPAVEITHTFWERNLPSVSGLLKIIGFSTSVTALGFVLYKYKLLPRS
# Source text: (§1) Inhibition assay using MAO-A and MAO-B.
# [2] = target: T2, Amine oxidase [flavin-containing] B (Homo sapiens, UniProt P27338); assay: Inhibiton Assay
# T2 sequence (P27338 whole entry): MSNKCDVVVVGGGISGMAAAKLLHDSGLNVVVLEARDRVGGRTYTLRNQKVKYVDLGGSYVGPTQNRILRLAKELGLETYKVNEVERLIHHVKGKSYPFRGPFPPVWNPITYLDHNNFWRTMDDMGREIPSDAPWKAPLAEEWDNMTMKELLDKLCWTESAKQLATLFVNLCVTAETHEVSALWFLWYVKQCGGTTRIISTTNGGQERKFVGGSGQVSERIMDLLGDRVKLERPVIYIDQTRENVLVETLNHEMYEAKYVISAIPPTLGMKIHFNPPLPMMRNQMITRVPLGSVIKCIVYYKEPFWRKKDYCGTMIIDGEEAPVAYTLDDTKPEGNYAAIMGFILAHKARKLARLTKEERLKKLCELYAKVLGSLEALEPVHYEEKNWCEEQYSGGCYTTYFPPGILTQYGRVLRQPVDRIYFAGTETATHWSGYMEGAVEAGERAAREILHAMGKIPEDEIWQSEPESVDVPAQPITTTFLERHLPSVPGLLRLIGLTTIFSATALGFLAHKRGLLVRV
# Source text: as §1
Ki [1],IC50 [2],Compound
37 µM,12 µM,"C[n+]1ccc(CCc2ccccc2)cc1 [MPP analogue, 17]"
5.5 µM,850 µM,"C[n+]1ccc(Cc2cccc3ccccc23)cc1 [MPP analogue, 19]"

Compound,Ki [1],IC50 [2]
"C[n+]1ccc(Cc2ccccc2F)cc1 [MPP analogue, 18]",29 µM,2000 µM
